Reference: US9034846B2, “Use of cyclodextrin for treatment and prevention of bronchial inflammatory diseases” (UNIVERSITE DE LIEGE, priority 2004, dated 2015)

Assays:
OVA exposed mice = assay: Peribronchial inflammation score by histology, OVA mouse model; format: in vivo; conditions: 1, 7.5 and 50 mM, compared to placebo; FIG. 2
Experimental: In order to study modulation of airway inflammation, males BALB/c mice of 6 to 8 weeks old were sensitized by intraperitoneal injection of 10 μg ovalbumin (OVA) (Sigma Aldrich, Schnelldorf, Germany) emulsified in aluminum hydroxyde (AlumInject; Perbio, Erembodegem, Belgium) on days 1 and 8. Mice were subsequently exposed to allergens by daily inhalation of an aerosol of OVA 1%, for 30 minutes, generated by ultrasonic nebulizer (Devilbiss 2000), from day 21 to 27. […] Mice were sacrificed performed on day 28 as previously reported by Cataldo and al in Am. J. Pathol 2002; 161(2):491-498.
After BAL, the thorax was opened and the left main bronchus was clamped. The left lung was excised and frozen immediately at −80° C. for protein and mRNA extraction. The right lung was infused with 4 ml paraformaldehyde 4%, embedded in paraffin and used for histology. Sections of 5 μm thickness were cut off from paraffin and were stained with haematoxylin-eosin. The extent of peribronchial inflammation was estimated by a score calculated by quantification of peribronchial inflammatory cells, as previously described by Cataldo D D, Tournoy K G, Vermaelen K et al. in Am J Pathol 2002; 161(2):491-498. A value of 0 was adjudged when no inflammation was detectable, a value of 1 when there was occasionally inflammatory cells, a value of 2 when most bronchi were surrounded by a thin layer (1 to 5 cells) of inflammatory cells and a value of 3 when most bronchi were surrounded by a thick layer (>5 cells) of inflammatory cells. Since 5-7 randomly selected tissue sections per mouse were scored, inflammation scores are expressed as a mean value and can be compared between groups. After Congo Red staining, the eosinophilic infiltration in the airway walls was quantified by manual count and reported to the perimeter of epithelial basement membrane defining an eosinophilic inflammatory score.

Eotaxin = Eotaxin ELISA in lung protein extracts, OVA mouse model; format: in vivo; conditions: all doses tested, compared to placebo; FIG. 7a
Experimental: (§1) In order to study modulation of airway inflammation, males BALB/c mice of 6 to 8 weeks old were sensitized by intraperitoneal injection of 10 μg ovalbumin (OVA) (Sigma Aldrich, Schnelldorf, Germany) emulsified in aluminum hydroxyde (AlumInject; Perbio, Erembodegem, Belgium) on days 1 and 8. Mice were subsequently exposed to allergens by daily inhalation of an aerosol of OVA 1%, for 30 minutes, generated by ultrasonic nebulizer (Devilbiss 2000), from day 21 to 27. Mice were subjected to inhalation of β-CD, HP-β-CD HP 1, 7.5, 50 mM and HP-β-CD 50 mM 30 minutes before OVA inhalation. Mice were sacrificed performed on day 28 as previously reported by Cataldo and al in Am. J. Pathol 2002; 161(2):491-498.
The left lung was crushed using a Mikro-Dismembrator (Braun Biotech International, Gmbh Melsungen, Germany). For proteins extraction, the crushed lung tissue was incubated overnight at 4° C. in a solution containing 2M urea, 1M NaCl and 50 mM Tris (pH 7.5) and subsequently centrifuged 15 minutes at 16.000×g. […]
(§2) Eotaxin and IL-13 levels were assessed using commercial ELISAs (R&D systems, Abingdon, UK). Eotaxin was measured by incubation in a wheel coated with a primary antibody specifically dedicated to the recognition of the protein and after rinsing, a second antibody against eotaxin, coupled with horse radish peroxydase was used to quantify the amounts of eotaxin in the solution

IL-13 = IL-13 ELISA in BAL and lung protein extracts, OVA mouse model; format: in vivo
Experimental: as §1
The left lung was crushed using a Mikro-Dismembrator (Braun Biotech International, Gmbh Melsungen, Germany). For proteins extraction, the crushed lung tissue was incubated overnight at 4° C. in a solution containing 2M urea, 1M NaCl and 50 mM Tris (pH 7.5) and subsequently centrifuged 15 minutes at 16.000×g. The supernatant was stored at −80° C.
as §2
IL-13 was measured by incubation in a wheel coated with a primary antibody specifically dedicated to the recognition of the protein and after rinsing, a second antibody against IL-13, coupled with horse radish peroxydase was used to quantify the amounts of […] in the solution.

CXCL-1 = CXCL-1 ELISA in lung protein extracts, OVA-induced inflammation model; format: in vivo, mouse; conditions: aerosolized 15 mM, vs placebo-exposed mice, FIG. 12
Experimental: In ovalbumin (OVA)-induced inflammation model, mice were immunized by intraperitoneal injection of OVA (10 μg) (Sigma Aldrich, Schnelldorf, Germany) and aluminium hydroxyde on days 0 and 7. From days 21 to 25, mice were exposed to inhalation of 1% OVA or PBS (phosphate buffer saline) for 30 minutes. Airway hyperresponsiveness was measured on day 26 before sacrifice. Mice were either exposed to aerosolized hydroxypropyl-beta-cyclodextrin (15 mM) or PBS for […] 6 hours before allergen exposure.
After sacrifice, thorax was opened and the right lungs were excised and snap frozen in liquid nitrogen for protein extraction. The left lung was insufflated at constant pressure with 4% paraformaldehyde and embedded in paraffin for further histological analysis. A peribronchial inflammation score was applied on each hematoxylin-eosin stained slide as previously reported (Cataldo et al Am J Pathol 2002). A value from 0 to 2 was adjudged to each bronchus. […] Six bronchi per mice were counted and statistical analysis was performed by using GraphPad Program. […] ELISA for CXCL-1 on lung protein extracts were assessed using antibodies from R&D Systems and the R&D Duoset® Elisa Development kit (R&D Systems, Minneapolis, Minn., USA).

[1] = test system: LPS-induced peribronchial inflammation; assay: Peribronchial inflammation score, LPS-induced inflammation model; format: in vivo, mouse; conditions: aerosolized 15 mM, vs placebo, FIG. 14
Experimental: In lipopolysaccharide (LPS)-induced inflammation model, mice were exposed to 3 μg LPS diluted in 100 μl of PBS or PBS (phosphate buffer saline) only administered by direct tracheal instillations at day 1 and 5 of the protocol. Mice were daily exposed either to aerosolized hydroxypropyl-beta-cyclodextrin (15 mM) or PBS for 30 min from day 0 to 5 (6 hours after LPS or sham exposure at days 1 and 5). Mice were sacrificed at day 6.
After sacrifice, thorax was opened and the right lungs were excised and snap frozen in liquid nitrogen for protein extraction. The left lung was insufflated at constant pressure with 4% paraformaldehyde and embedded in paraffin for further histological analysis. A peribronchial inflammation score was applied on each hematoxylin-eosin stained slide as previously reported (Cataldo et al Am J Pathol 2002). A value from 0 to 2 was adjudged to each bronchus. Score of 0 corresponded to bronchi without inflammation; score 1 to occasional mononuclear cells observed around bronchi, and score 2 to 1 to 5 layer(s) of inflammatory cells around bronchi. Six bronchi per mice were counted and statistical analysis was performed by using GraphPad Program. […] ELISA for CXCL-1 on lung protein extracts were assessed using antibodies from R&D Systems and the R&D Duoset® Elisa Development kit (R&D Systems, Minneapolis, Minn., USA).

Substance: hydroxypropyl-βcyclodextrin [HP-β-CD]
- peribronchial inflammation score (OVA exposed mice): decreased inflammation score
- levels of eotaxin in lung protein extracts (Eotaxin): decrease
- levels of IL-13 in whole lung protein extracts (IL-13; 50 mM, FIG. 11): significantly decreased
- IL-13 levels in BAL (IL-13; FIG. 7b): decreased
- Levels of CXCL-1 in lung protein extracts (CXCL-1): significantly decreased
- Peribronchial inflammation [1]: significantly lower
